Converted amounts (≈) assume the structure as drawn. Like-named read-outs stand apart in the source and are kept apart here. A value given as a limit tells only on which side of the number the result lay.

As usually defined, the thermodynamic solubility is the concentration in solution at equilibrium with solid.

For series [1], the system named is E. faecium ATCC 700221. As to the kind of experiment: MIC broth microdilution (CLSI). In kind it is cell-based. As to conditions: Enterococcus faecium, ATCC700221. On the technique in general: Broth dilution looks for growth in wells or tubes with falling amounts of substance.
The subject of series [2] is P. aeruginosa ATCC 27853. As to the kind of experiment: MIC broth microdilution (CLSI). In kind it is cell-based. Conditions: Pseudomonas aeruginosa, ATCC27853. The essentials: (§1)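 CLSI microdilution; cation-adj. MHBII; 5 × 10^4 cells/well, 100 μL; DMSO ≤0.64% (at 64 μg/mL); 37 °C, 150 rpm, 18 h; OD600 read; MIC = conc. with mean OD600 rise <1.5× background, n=3.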
Series [3] relates to K. pneumoniae ATCC 10031. The series can be described thus: MIC broth microdilution (CLSI). In kind it is cell-based. Conditions: Klebsiella pneumoniae, ATCC10031. The essentials:
as §1

The test system of series [4] is S. aureus (MRSA) ATCC 43300. The series can be described thus: MIC broth microdilution (CLSI). The class given is cell-based. The essentials: as §1
Series [5] relates to E. coli ATCC 25922. As to the kind of experiment: MIC broth microdilution (CLSI). The class given is cell-based. Conditions: Escherichia coli, ATCC25922. The essentials:
as §1

Series [6] in a line: physchem. The class given is physicochemical. The method, then: For the PBS, 2.38 g of disodium hydrogen phosphate dodecahydrate, 0.19 g of potassium dihydrogen phosphate, and 8.0 g of sodium chloride were added to distilled water (900 mL), and the solution was mixed overnight. […] Samples were prepared by weighing the exact mass of solid compounds (about 1 mg), and then, the appropriate volume of PBS was added to reach the final concentration of ∼1 mg/mL. […] The supernatant was diluted 3× with a 1:1 mixture of 0.1% TFA in water and acetonitrile and analyzed by HPLC. For the 7-point calibration curves, concentrated stock solutions of the compounds were prepared at concentrations of 10 and 0.5 mM in DMSO, which were diluted with a 1:1 mixture of 0.1% TFA in water and acetonitrile to the desired final concentrations and analyzed by HPLC. Results are given in μM as an average value of two independent experiments. For details on calibration curves, concentrations, analytical method, and HPLC method, see the Supporting Information.
Thermodynamic solubility assay
To determine thermodynamic solubility of compounds in PBS, calibration curves for the assayed compounds were prepared using seven concentrations. First, DMSO stock solutions of compounds at 10 mM and 0.5 mM concentration were prepared and then diluted (0.1% TFA in […]
Quality control (QC) samples were diluted from stock solutions with a 1:1 mixture of 0.1% TFA in water and acetonitrile to final concentrations of 60 µM, 20 µM, and 2 µM (6 µM, 2 µM, and 0.2 µM for 7f or 0.6 µM, 0.2 µM, and 0.02 µM for 7g).
Analytical reversed-phase UHPLC analyses were performed on Thermo Scientific Dionex UltiMate 3000 modular system (Thermo Fisher Scientific Inc., MA, USA). Waters Acquity UPLC® HSS C18 SB column (2.1 × 50 mm, 1.8 μm; Waters, Milford, MA, USA) was used at T […]
Mobile phase consisted of 0.1% trifluoroacetic acid in ultrapure water (solvent A) and acetonitrile […]
The obtained data was processed in Chromeleon CDS software (Thermo Fisher Scientific Inc., […]
Analytical method was tested for accuracy, precision and linear rang. Accuracy was […]
(or 2 or 0.2) µM and 60 (or 6 or 0.6) µM) to their true values and expressed in (%). Values were […]
Method repeatability was determined by calculating the RSD from the separately prepared and analysed quality control samples (n = 3). […] Linearity of the […]
method (1 (or 0.1 or 0.01) µM to 100 (or 10 or 1) µM) was evaluated from the 7-point calibration […]
Solubility was determined in two independent experiments and results were calculated in […]

Series [7] concerns S. aureus ATCC 29213. As to the kind of experiment: MIC broth microdilution (CLSI). In kind it is cell-based. The essentials: (§2)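 Cation-adjusted Mueller Hinton broth 2 microdilution, 5 × 10^4 cells per well in 100 μL, three parallel replicates, plates bagged to limit evaporation; growth read as OD600 after incubation.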
Series [8] concerns A. baumannii ATCC 17978. As to the kind of experiment: MIC broth microdilution (CLSI). The class given is cell-based. As to conditions: Acinetobacter baumannii, ATCC17978. The essentials: as §2
Where [9] appears, read: pH 7.4, thermodynamic solubility (pH = 7.4).
The mark [10] stands for this setting: Staphylococcus aureus; read-out: MIC.
[11] abbreviates: Staphylococcus aureus; read-out: MIC [µg/mL](S. aureus MRSA ATCC4330).
Setting [12] is: phosphate-buffered saline (PBS), pH 7.4, PBS pH 7.4, read-out: thermodynamic solubility, Experiment 1.
The mark [13] stands for this setting: phosphate-buffered saline (PBS), pH 7.4, PBS pH 7.4, read-out: thermodynamic solubility, Experiment 2.
The mark [14] stands for this setting: phosphate-buffered saline (PBS), pH 7.4, thermodynamic solubility (pH = 7.4), PBS, 37 °C, 24 h, mean of two.
The mark [15] stands for this setting: read-out: MIC [µg/mL] (A. baumannii ATCC 17978).
Where [16] appears, read: Staphylococcus aureus, ATCC29213; read-out: MIC.
Where [17] appears, read: Staphylococcus aureus, ATCC29213; read-out: MIC [µg/mL](S. aureus ATCC 29213).

For the compound `Cc1[nH]c(C(=O)Nc2nc3c(N4CCOCC4)cc(C(=O)O)cc3s2)c(Cl)c1Cl` [7a, 2-(3,4-Dichloro-5-methyl-1H-pyrrole-2-carboxamido)-4-morpholinobenzo[d]thiazole-6-carboxylic Acid], the MIC in series [1] is below 0.0312 µg/mL; in series [2] it was 16 µg/mL; in series [3], 0.5 µg/mL; in series [4] (Staphylococcus aureus) it was 0.0625 µg/mL; in series [4] (Staphylococcus aureus, read-out: MIC [µg/mL](S. aureus MRSA ATCC4330)), 0.25 µg/mL; in series [5], 8 µg/mL. For the same compound, the MIC in series [7] (Staphylococcus aureus, ATCC29213) turned out to be 0.25 µg/mL; in series [7] (Staphylococcus aureus, ATCC29213, read-out: MIC [µg/mL](S. aureus ATCC 29213)), 0.25 µg/mL. Also, the thermodynamic solubility in series [6] (pH 7.4, PBS pH 7.4, read-out: thermodynamic solubility, Experiment 1) stood at 100 µM (≈ 45.5 µg/mL); in series [6] (pH 7.4, PBS pH 7.4, read-out: thermodynamic solubility, Experiment 2) it was 96.6 µM (≈ 44 µg/mL); in series [6] (setting [9]), 98.3 µM (≈ 44.8 µg/mL). In series [6] (setting [9]), the thermodynamic solubility at 48 h worked out at 98 µM (≈ 44.6 µg/mL).
For `Cc1[nH]c(C(=O)Nc2nc3c(N4CCOCC4C)cc(C(=O)O)cc3s2)c(Cl)c1Cl` (stereo not drawn) [7b, 2-(3,4-Dichloro-5-methyl-1H-pyrrole-2-carboxamido)-4-(3-methylmorpholino)benzo[d]thiazole-6-carboxylic Acid], the MIC in series [1] (read-out: MIC) is below 0.0312 µg/mL; in series [2] (read-out: MIC), 8 µg/mL; in series [3] (read-out: MIC), 2 µg/mL; in series [4] (setting [10]) it was below 0.0312 µg/mL; in series [4] (setting [11]), below 0.0312 µg/mL; in series [5] (read-out: MIC) it was 8 µg/mL. For the same compound, the MIC in series [8] (read-out: MIC) stood at 4 µg/mL; in series [8] (setting [15]), 4 µg/mL; in series [7] (setting [16]), 0.125 µg/mL; in series [7] (setting [17]), 0.125 µg/mL. Further, the values for the thermodynamic solubility at 24 h in series [6] (setting [12]), in series [6] (setting [13]) and in series [6] (setting [14]) were 59.6 µM (≈ 28 µg/mL), 76.6 µM (≈ 36 µg/mL) and 68.1 µM (≈ 32 µg/mL), respectively. For the same compound, the thermodynamic solubility at 48 h in series [6] (setting [14]) is 68 µM (≈ 31.9 µg/mL).
Consider `Cc1[nH]c(C(=O)Nc2nc3c(N4CCOC[C@H]4C)cc(C(=O)O)cc3s2)c(Cl)c1Cl` [7c, (R)-2-(3,4-Dichloro-5-methyl-1H-pyrrole-2-carboxamido)-4-(3-methylmorpholino)benzo[d]thiazole-6-carboxylic Acid], for which the MIC is below 0.0312 µg/mL in series [1] (read-out: MIC); 8 µg/mL in series [2] (read-out: MIC); 1 µg/mL in series [3] (read-out: MIC); 0.125 µg/mL in series [4] (setting [10]); 0.125 µg/mL in series [4] (setting [11]); 8 µg/mL in series [5] (read-out: MIC). Moreover, the MIC in series [8] (read-out: MIC) is 8 µg/mL; in series [8] (setting [15]), 8 µg/mL; in series [7] (setting [16]), 0.0625 µg/mL; in series [7] (setting [17]) it was 0.0625 µg/mL. The “thermodynamic solubility (pH = 7.4)” value in series [6] (PBS, 37 °C, 24 h, mean of two) amounted to 10.14 µM. Moreover, the values for the solubility (thermodynamic) at 24 h in series [6] (setting [12]), in series [6] (setting [13]) and in series [6] (setting [14]) were 8.67 µM (≈ 4.07 µg/mL), 11.6 µM (≈ 5.44 µg/mL) and 10.1 µM (≈ 4.74 µg/mL), respectively.
As for `Cc1[nH]c(C(=O)Nc2nc3c(N4CCOC[C@@H]4C)cc(C(=O)O)cc3s2)c(Cl)c1Cl` [7d, (S)-2-(3,4-Dichloro-5-methyl-1H-pyrrole-2-carboxamido)-4-(3-methylmorpholino)benzo[d]thiazole-6-carboxylic Acid], the MIC was below 0.0312 µg/mL in series [1] (read-out: MIC); 8 µg/mL in series [2] (read-out: MIC); 2 µg/mL in series [3] (read-out: MIC); 0.125 µg/mL in series [4] (setting [10]); 0.125 µg/mL in series [4] (setting [11]); 8 µg/mL in series [5] (read-out: MIC). The MIC came out at 8 µg/mL in series [8] (read-out: MIC), 8 µg/mL in series [8] (setting [15]), 0.125 µg/mL in series [7] (setting [16]) and 0.125 µg/mL in series [7] (setting [17]). The “thermodynamic solubility (pH = 7.4)” value in series [6] (PBS, 37 °C, 24 h, mean of two) is 5.84 µM. Also, the thermodynamic solubility at 24 h in series [6] (setting [12]) is 5.6 µM (≈ 2.63 µg/mL); in series [6] (setting [13]), 6.07 µM (≈ 2.85 µg/mL); in series [6] (setting [14]) it was 5.8 µM (≈ 2.72 µg/mL).
